Measured values published in patent US9156838B2, “Fused heterocyclic compound” (Sumitomo Chemical Company, Limited, priority 2012, dated 2015).

Test system: Blattella germanica
Assay: Test Example 9: treated filter paper with sucrose bait, Blattella germanica male imagoes
Assay type: in vivo
Conditions: 500 ppm, 0.7 ml on filter paper, after 6 days
Protocol: The formulations of Compounds 3 and 10 as obtained in Formulation Example 5 were diluted with water, so as to have a concentration of the active ingredient of 500 ppm, to prepare a test drug solution.
A filter paper having a diameter of 5.5 cm was spread on the bottom of a polyethylene cup having the same diameter and 0.7 ml of the test drug solution was added dropwise onto the filter paper, and 30 mg of sucrose was uniformly placed as bait. Into the polyethylene cup, 2 male imagoes of Blattella germanica were released, and the cup was sealed with a lid. After 6 days, the life and death of Blattella germanica was examined, and the death rate was calculated.

SMILES | death rate
CCS(=O)(=O)c1cc(SC(F)(F)F)ccc1-c1nc2cc(C(F)(F)C(F)(F)F)cnc2n1C [Compound 10, 2-(2-ethylsulfonyl-4-trifluoromethylsulfanylphenyl)3-methyl-6-pentafluoroethyl-3H-imidazo[4,5-b]pyridine] | 100%
CCS(=O)(=O)c1cc([S+]([O-])C(F)(F)F)ccc1-c1nc2cc(C(F)(F)F)cnc2n1C (centres unmarked) [Compound 3] | 100%
